Measurements from the CheMixHub viscosity set.
± gives the uncertainty stated by the source.

Test: xn = mol fraction of the nth substance listed

CCN(CC)CCO + CC(=O)N(C)C
viscosity [mPa·s], 101 kPa
Conditions	298.15 K	308.15 K	318.15 K
x2 = 0.0505	2.874 ± 0.018	2.164 ± 0.014	1.669 ± 0.011
x2 = 0.0999	2.683 ± 0.017	1.999 ± 0.013	1.517 ± 0.01
x2 = 0.1499	2.512 ± 0.016	1.849 ± 0.012	1.374 ± 0.009
x2 = 0.2004	2.356 ± 0.015	1.715 ± 0.011	1.254 ± 0.008
x2 = 0.2997	2.089 ± 0.014	1.502 ± 0.01	1.08 ± 0.008
x2 = 0.3997	1.871 ± 0.013	1.314 ± 0.009	0.956 ± 0.007
x2 = 0.5008	1.677 ± 0.012	1.207 ± 0.009	0.861 ± 0.006
x2 = 0.5998	1.51 ± 0.011	1.103 ± 0.008	0.792 ± 0.006
x2 = 0.6995	1.357 ± 0.01	1.015 ± 0.008	0.747 ± 0.006
x2 = 0.7989	1.2 ± 0.009	0.932 ± 0.007	0.721 ± 0.006
x2 = 0.8997	1.046 ± 0.008	0.854 ± 0.007	0.7 ± 0.006

NS(=O)(=O)O + CC(=O)N(C)C
298 K, 101.33 kPa
Conditions	viscosity [mPa·s]
x1 = 0.02772	1.19 ± 0.014
x1 = 0.05584	1.637 ± 0.019
x1 = 0.08283	2.268 ± 0.027
x1 = 0.1075	3.241 ± 0.038
x1 = 0.33	1.147 ± 0.011
x1 = 0.67	1.499 ± 0.011

CCN(CC)CCO + CC(=O)c1ccccc1
viscosity [mPa·s], 101.3 kPa
Conditions	x2 = 0.1124	x2 = 0.2218	x2 = 0.3282	x2 = 0.4318	x2 = 0.5327	x2 = 0.631	x2 = 0.7268	x2 = 0.8201	x2 = 0.9112
303.15 K	3.131 ± 0.63	2.954 ± 0.59	2.778 ± 0.56	2.601 ± 0.52	2.424 ± 0.49	2.247 ± 0.45	2.07 ± 0.41	1.894 ± 0.38	1.717 ± 0.34
313.15 K	2.304 ± 0.46	2.193 ± 0.44	2.083 ± 0.42	1.972 ± 0.39	1.862 ± 0.37	1.752 ± 0.35	1.641 ± 0.33	1.531 ± 0.31	1.42 ± 0.28
323.15 K	1.458 ± 0.29	1.446 ± 0.29	1.434 ± 0.29	1.419 ± 0.28	1.401 ± 0.28	1.381 ± 0.28	1.36 ± 0.27	1.335 ± 0.27	1.311 ± 0.26

CCCCC + CC(C)(C)O
viscosity [mPa·s], 101 kPa
Conditions	x1 = 0.1023	x1 = 0.2048	x1 = 0.3056	x1 = 0.407	x1 = 0.5068	x1 = 0.606	x1 = 0.7043	x1 = 0.8042	x1 = 0.902
293.15 K	1.891 ± 0.62	1.128 ± 0.47	0.88 ± 0.42	0.771	0.657	0.485	0.373	0.32	0.281
303.15 K	1.992 ± 0.64	1.162 ± 0.48	1.011 ± 0.45	1.064 ± 0.46	0.954 ± 0.44	0.769	0.616	0.49	0.36
313.15 K	1.996 ± 0.64	1.211 ± 0.49	1.298 ± 0.51	1.282 ± 0.5	1.182 ± 0.48	1.012 ± 0.45	0.832 ± 0.41	0.625	0.455

CCN(CC)S(C)(=O)=O + CC(C)(C)O
303.15 K, 101.33 kPa
Conditions	viscosity [mPa·s]
x1 = 0.0764	28570 ± 3400
x1 = 0.1463	26300 ± 3100
x1 = 0.2364	24820 ± 2900
x1 = 0.3171	24370 ± 2800
x1 = 0.3944	24530 ± 2800
x1 = 0.4712	25010 ± 2900
x1 = 0.5369	25790 ± 3000
x1 = 0.6062	26640 ± 3100
x1 = 0.6888	27960 ± 3300
x1 = 0.7621	30100 ± 3600
x1 = 0.8534	33040 ± 4000
x1 = 0.9381	36570 ± 4500

CS(C)=O + CC(C)=O
302.4 K, 101 kPa
Conditions	viscosity [mPa·s]
x1 = 0.0644	0.7031
x1 = 0.1924	0.809
x1 = 0.3826	1.14
x1 = 0.508	1.554
x1 = 0.6325	2.09
x1 = 0.8173	2.443

CCCCC + CC(C)O
298.15 K, 101 kPa
Conditions	viscosity [mPa·s]
x2 = 0.1128	0.262 ± 0.01
x2 = 0.2204	0.281 ± 0.01
x2 = 0.3273	0.323 ± 0.01
x2 = 0.4232	0.385 ± 0.01
x2 = 0.516	0.466 ± 0.01
x2 = 0.6004	0.577 ± 0.01
x2 = 0.6858	0.71 ± 0.01
x2 = 0.7699	0.966 ± 0.01
x2 = 0.8524	1.272 ± 0.01
x2 = 0.9438	1.702 ± 0.01

CCCCCCCCCC + CC(C)O
viscosity [mPa·s]
Conditions	293.15 K	298.15 K	303.15 K	308.15 K
101 kPa, x2 = 0.0571	–	0.839 ± 0.007	–	0.757 ± 0.007
101 kPa, x2 = 0.1237	–	0.837 ± 0.007	–	0.74 ± 0.006
101 kPa, x2 = 0.1714	–	0.838 ± 0.007	–	0.726 ± 0.006
101 kPa, x2 = 0.2709	–	0.851 ± 0.007	–	0.735 ± 0.006
101 kPa, x2 = 0.3525	–	0.867 ± 0.007	–	0.746 ± 0.007
101 kPa, x2 = 0.4184	–	0.888 ± 0.007	–	0.762 ± 0.007
101 kPa, x2 = 0.5253	–	0.945 ± 0.008	–	0.8 ± 0.007
101 kPa, x2 = 0.5786	–	0.986 ± 0.008	–	0.824 ± 0.007
101 kPa, x2 = 0.6537	–	1.059 ± 0.009	–	0.882 ± 0.007
101 kPa, x2 = 0.6971	–	1.113 ± 0.009	–	0.909 ± 0.008
101 kPa, x2 = 0.7895	–	1.261 ± 0.01	–	1.013 ± 0.008
101 kPa, x2 = 0.8717	–	1.457 ± 0.011	–	1.152 ± 0.009
101 kPa, x2 = 0.9099	–	1.583 ± 0.012	–	1.246 ± 0.01
101 kPa, x2 = 0.9453	–	1.727 ± 0.013	–	1.35 ± 0.011
101.32 kPa, x2 = 0.0412	0.896 ± 0.012	0.831 ± 0.012	0.773 ± 0.011	–
101.32 kPa, x2 = 0.0998	0.893 ± 0.012	0.827 ± 0.011	0.768 ± 0.011	–
101.32 kPa, x2 = 0.161	0.904 ± 0.012	0.847 ± 0.012	0.785 ± 0.011	–
101.32 kPa, x2 = 0.2938	0.916 ± 0.012	0.845 ± 0.011	0.777 ± 0.011	–
101.32 kPa, x2 = 0.3954	0.957 ± 0.013	0.878 ± 0.012	0.809 ± 0.011	–
101.32 kPa, x2 = 0.4988	1.006 ± 0.013	0.916 ± 0.012	0.836 ± 0.011	–
101.32 kPa, x2 = 0.5943	1.095 ± 0.014	0.986 ± 0.013	0.893 ± 0.012	–
101.32 kPa, x2 = 0.7019	1.241 ± 0.016	1.11 ± 0.015	0.994 ± 0.013	–
101.32 kPa, x2 = 0.8012	1.436 ± 0.019	1.273 ± 0.017	1.127 ± 0.015	–
101.32 kPa, x2 = 0.9017	1.759 ± 0.023	1.538 ± 0.02	1.348 ± 0.017	–
101.32 kPa, x2 = 0.951	2.014 ± 0.026	1.742 ± 0.023	1.515 ± 0.02	–

CS(C)=O + CC(C)O
viscosity [mPa·s]
Conditions	298.15 K	303.15 K	308.15 K	318.15 K
101 kPa, x1 = 0.0385	1.91 ± 0.02	1.59 ± 0.02	1.46 ± 0.01	–
101 kPa, x1 = 0.0787	1.77 ± 0.02	1.49 ± 0.01	1.36 ± 0.01	–
101 kPa, x1 = 0.1001	–	1.525 ± 0.069	–	–
101 kPa, x1 = 0.2059	1.51 ± 0.01	–	–	–
101 kPa, x1 = 0.2479	1.45 ± 0.01	1.32 ± 0.01	1.2 ± 0.01	–
101 kPa, x1 = 0.339	1.42 ± 0.01	1.29 ± 0.01	–	–
101 kPa, x1 = 0.4639	1.45 ± 0.01	1.32 ± 0.01	–	–
101 kPa, x1 = 0.5357	1.48 ± 0.01	1.35 ± 0.01	1.24 ± 0.01	–
101 kPa, x1 = 0.6422	1.55 ± 0.01	1.42 ± 0.01	1.32 ± 0.01	–
101 kPa, x1 = 0.7547	1.66 ± 0.01	1.51 ± 0.01	1.39 ± 0.01	–
101 kPa, x1 = 0.8134	1.72 ± 0.01	1.57 ± 0.01	1.45 ± 0.01	–
101 kPa, x1 = 0.8738	1.8 ± 0.02	1.64 ± 0.01	1.5 ± 0.01	–
101 kPa, x1 = 0.9005	–	–	–	1.285 ± 0.06
101 kPa, x1 = 0.936	1.88 ± 0.02	1.72 ± 0.01	–	–
101.3 kPa, x1 = 0.0788	1.742 ± 0.081	1.576 ± 0.074	–	–
101.3 kPa, x1 = 0.1608	1.589 ± 0.075	1.447 ± 0.068	–	–
101.3 kPa, x1 = 0.2475	1.473 ± 0.07	1.358 ± 0.065	–	–
101.3 kPa, x1 = 0.3389	1.475 ± 0.07	1.319 ± 0.063	–	–
101.3 kPa, x1 = 0.4347	1.451 ± 0.069	–	–	–
101.3 kPa, x1 = 0.5347	1.501 ± 0.071	1.346 ± 0.064	–	–
101.3 kPa, x1 = 0.6423	1.597 ± 0.075	1.406 ± 0.067	–	–
101.3 kPa, x1 = 0.7546	1.679 ± 0.078	1.505 ± 0.071	–	–
101.3 kPa, x1 = 0.8737	1.828 ± 0.085	1.622 ± 0.076	–	–
